Measured values from patent publication US10981902B2 (Merck Sharp & Dohme Corp., priority 2017, dated 2021).

These molecules were tested against T1, human M4 muscarinic acetylcholine receptor (Homo sapiens, UniProt P08173) (assay: human FLIPR-based M4 PAM assay (calcium mobilization, CHO-K1 cells with human M4 receptor and Gαqi5)). Conditions: inflection point (IP) of dose response curve, acetylcholine added at 20% of maximum response, read-out: M4 FLIPPR Hu IP.
T1 construct: expressed in transfected cells; host or cells: CHO-K1
T1 sequence (P08173 1-479): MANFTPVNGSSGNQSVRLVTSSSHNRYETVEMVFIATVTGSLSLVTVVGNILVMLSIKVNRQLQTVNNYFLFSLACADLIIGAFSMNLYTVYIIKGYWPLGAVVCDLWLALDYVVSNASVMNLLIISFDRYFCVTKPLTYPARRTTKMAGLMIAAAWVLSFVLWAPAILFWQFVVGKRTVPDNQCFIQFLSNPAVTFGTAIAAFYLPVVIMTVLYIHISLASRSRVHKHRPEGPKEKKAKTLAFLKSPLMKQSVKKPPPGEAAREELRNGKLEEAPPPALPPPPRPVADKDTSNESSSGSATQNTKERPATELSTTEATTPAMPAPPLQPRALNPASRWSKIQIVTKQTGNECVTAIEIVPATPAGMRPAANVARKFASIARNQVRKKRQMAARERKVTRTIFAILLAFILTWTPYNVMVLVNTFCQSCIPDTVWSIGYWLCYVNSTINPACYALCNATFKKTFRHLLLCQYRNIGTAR
Assay type: cell-based
How it was run: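 CHO-K1 cells stably expressing human M4 and Gαqi5, dye-loaded ~1 h at 37 °C, read on FLIPR Tetra. Test compound added at increasing concentrations 4 min before acetylcholine at an EC20 concentration, sometimes followed by an EC70 addition. Dose-response curves fit to a 4-parameter logistic; result is the curve inflection point.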

Compound	EC50 [µM]
N#Cc1ccc(-c2cnc(CC3(F)CCCC3)o2)c(-c2ccc3cccnc3c2)n1 [Example 72, 5-(2-((1-fluorocyclopentyl)methyl)oxazol-5-yl)-6-(quinolin-7-yl)picolinonitrile]	0.051
N#Cc1ccc(-c2cnc(CC3(F)CCC3)o2)c(-c2ccc3cccnc3c2)n1 [Example 73, 5-(2-((1-fluorocyclobutyl)methyl)oxazol-5-yl)-6-(quinolin-7-yl)picolinonitrile]	0.065
CCC(F)(CC)Cc1ncc(-c2ccc(C#N)nc2-c2ccc3cccnc3c2)o1 [Example 74, 5-(2-(2-ethyl-2-fluorobutyl)oxazol-5-yl)-6-(quinolin-7-yl)picolinonitrile]	0.138
Cc1cn2ccc(-c3nc(C#N)ccc3-c3cnc(CC4(O)CCCC4)o3)cc2n1 [Example 75, 5-(2-((1-hydroxycyclopentyl)methyl)oxazol-5-yl)-6-(2-methylimidazo [1,2-a]pyridin-7-yl) picolinonitrile]	0.23
N#Cc1ccc(-c2cnc(CC3(F)CCCC3)o2)c(-c2ccn3ccnc3c2)n1 [Example 76, 5-(2-((1-fluorocyclopentyl)methyl)oxazol-5-yl)-6-(imidazo [1,2-a]pyridin-7-yl) picolinonitrile]	0.015
CN1Cc2ncc(-c3nc(C#N)ccc3-c3cnc(CC4(F)CCCC4)o3)cc2C1=O [Example 77]	0.045
FC1(Cc2ncc(-c3cccnc3-c3ccn4ccnc4c3)o2)CCCC1 [Example 78, 2-((1-fluorocyclopentyl)methyl)-5-(2-(imidazo[1,2-a]pyridin-7-yl)pyridin-3-yl) oxazole]	0.105
Cc1cn2ccc(-c3nc(C#N)ccc3-c3cnc(CC4(F)CCCC4)o3)cc2n1 [Example 79, 5-(2-((l-fluorocyclopentyl)methyl)oxazol-5-yl)-6-(2-methylimidazo [1,2-a]pyridin-7-yl) picolinonitrile]	0.031
CC(C)(F)Cc1ncc(-c2ccc(C#N)nc2-c2ccc3cccnc3c2)o1 [Example 80, 5-(2-(2-fluoro-2-methylpropyl)oxazol-5-yl)-6-(quinolin-7-yl) picolinonitrile]	0.141
CN1Cc2ccc(-c3nc(C#N)ccc3-c3cnc(CC4(O)CCCC4)o3)cc2C1=O [Example 81, 5-(2-((1-hydroxycyclopentyl)methyl)oxazol-5-yl)-6-(2-methyl-3-oxoisoindolin-5-yl) picolinonitrile]	0.184
CN1Cc2ccc(-c3nc(C#N)ccc3-c3cnc(CC4(F)CCCC4)o3)cc2C1=O [Example 82, 5-(2-((1-fluorocyclopentyl)methyl)oxazol-5-yl)-6-(2-methyl-3-oxoisoindolin-5-yl)picolinonitrile]	0.042
CC(Cc1ncc(-c2ccc(C#N)nc2-c2ccc3cccnc3c2)o1)C(C)(C)F (stereo not shown) [Example 83, 5-(2-(3-fluoro-2,3-dimethylbutyl)oxazol-5-yl)-6-(quinolin-7-yl) picolinonitrile]	0.068
N#Cc1ccc(-c2cnc(CC(F)C3CC3)o2)c(-c2ccn3ccnc3c2)n1 (stereo not shown) [Example 84, 5-(2-(2-cyclopropyl-2-fluoroethyl)oxazol-5-yl)-6-(imidazo[1,2-a]pyridin-7-yl) picolinonitrile]	0.03
N#Cc1ccc(-c2cnc(CC(F)C3CC3)o2)c(-c2ccn3ccnc3c2)n1 (stereo not shown) [Example 85, 5-(2-(2-cyclopropyl-2-fluoroethyl)oxazol-5-yl)-6-(imidazo[1,2-a]pyridin-7-yl) picolinonitrile]	0.049
Cc1cn2ccc(-c3nc(C#N)ccc3-c3cnc(CC(C)(C)F)o3)cc2n1 [Example 86, 5-(2-(2-fluoro-2-methylpropyl)oxazol-5-yl)-6-(2-methylimidazo [1,2-a]pyridin-7-yl) picolinonitrile]	0.101
Cc1cn2ccc(-c3nc(C#N)ccc3-c3cnc(CC(F)C4CC4)o3)cc2n1 (stereo not shown) [Example 87, 5-(2-(2-cyclopropyl-2-fluoroethyl)oxazol-5-yl)-6-(2-methylimidazo [1,2-a]pyridin-7-yl) picolinonitrile]	0.044
Cc1cn2ccc(-c3nc(C#N)ccc3-c3cnc(CC(F)C4CC4)o3)cc2n1 (stereo not shown) [Example 88, 5-(2-(2-cyclopropyl-2-fluoroethyl)oxazol-5-yl)-6-(2-methylimidazo [1,2-a]pyridin-7-yl)picolinonitrile]	0.063
Cc1nc2cc(-c3nc(C#N)ccc3-c3cnc(CC(C)(C)F)o3)ccc2n1C [Example 89, 6-(1,2-dimethyl-1H-benzo[d]imidazol-5-yl)-5-(2-(2-fluoro-2-methylpropyl)oxazol-5-yl)picolinonitrile]	0.112
CCC(C)(F)Cc1ncc(-c2ccc(C#N)nc2-c2ccn3cc(C)nc3c2)o1 (stereo not shown) [Example 90, 5-(2-(2-fluoro-2-methylbutyl)oxazol-5-yl)-6-(2-methylimidazo [1,2-a]pyridin-7-yl)picolinonitrile]	0.031

More lines, now with the values ahead:

EC50 [µM]	Compound
0.076	Cc1cn2ccc(-c3ncccc3-c3cnc(CC4(F)CCCC4)o3)cc2n1 [Example 91, 2-((1-fluorocyclopentyl)methyl)-5-(2-(2-methylimidazo [1,2-a]pyridin-7-yl)pyridin-3-yl)oxazole]
0.131	Cc1cn2ccc(-c3nc(C#N)ccc3-c3cnc(CC(O)C(C)C)o3)cc2n1 (stereo not shown) [Example 92, 5-(2-(2-hydroxy-3-methylbutyl)oxazol-5-yl)-6-(2-methylimidazo [1,2-a]pyridin-7-yl)picolinonitrile]
0.137	COCc1cn2ccc(-c3nc(C#N)ccc3-c3cnc(CC4CC4)o3)cc2n1 [Example 93, 5-(2-(cyclopropylmethyl)oxazol-5-yl)-6-(2-(methoxymethyl)imidazo[1,2-a]pyridin-7-yl)picolinonitrile]
0.137	CC(Cc1ncc(-c2ccc(C#N)nc2-c2ccn3ccnc3c2)o1)C(F)F (stereo not shown) [Example 94, 5-(2-(3,3-difluoro-2-methylpropyl)oxazol-5-yl)-6-(imidazo[1,2-a]pyridin-7-yl) picolinonitrile]
0.194	Cc1cn2ccc(-c3nc(C#N)ccc3-c3cnc(CC(C)C(F)(F)F)o3)cc2n1 (stereo not shown) [Example 95, 6-(2-methylimidazo[1,2-a]pyridin-7-yl)-5-(2-(3,3,3-trifluoro-2-methylpropyl)oxazol-5-yl)picolinonitrile]
0.052	CC1(Cc2ncc(-c3ccc(C#N)nc3-c3cnc4c(c3)C(=O)N(CCF)C4)o2)CCCC1 [Example 96, 6-(6-(2-fluoroethyl)-5-oxo-6,7-dihydro-5H-pyrrolo[3,4-b]pyridin-3-yl)-5-(2-((1-methylcyclopentyl)methyl)oxazol-5-yl)picolinonitrile]
0.036	Cc1cn2ccc(-c3nc(C#N)ccc3-c3cnc(CC4CC(F)(F)C4)o3)cc2n1 [Example 98, 5-(2-((3,3-difluorocyclobutyl)methyl)oxazol-5-yl)-6-(2-methylimidazo[1,2-a]pyridin-7-yl)picolinonitrile]
0.089	Cc1nc2cc(-c3nc(C#N)ccc3-c3cnc(CC4CC(F)(F)C4)o3)ccn2n1 [Example 99, 5-(2-((3,3-difluorocyclobutyl)methyl)oxazol-5-yl)-6-(2-methyl-[1,2,4]triazolo[1,5-a]pyridin-7-yl) picolinonitrile]
0.158	Cc1cn2ccc(-c3nc(C#N)ccc3-c3cnc(CC4(F)CC4)o3)cc2n1 [Example 100, 5-(2-((1-fluorocyclopropyl)methyl)oxazol-5-yl)-6-(2-methyl-imidazo[1,2-a]pyridin-7-yl)picolinonitrile]
